Where “and” joins values, the source holds several entries; their conditions need not be identical. Equal values may be shown once.
How the values were obtained:
[1] = for Normal melting temperature: DTA
[2] = Molar enthalpy of transition or fusion; conditions: Crystal; DSC

COC(=O)c1ccc(C=O)cc1 [methyl 4-formylbenzoate]
[1]
Conditions	vapor or sublimation pressure [kPa]
303.1 K, Crystal, Closed cell (Static) method	0.00069
305.04 K, Crystal, Closed cell (Static) method	0.00086
307.04 K, Crystal, Closed cell (Static) method	0.00109
309.04 K, Crystal, Closed cell (Static) method	0.00137
311.05 K, Crystal, Closed cell (Static) method	0.00173
313.01 K, Crystal, Closed cell (Static) method	0.00216
314.99 K, Crystal, Closed cell (Static) method	0.00268
317.07 K, Crystal, Closed cell (Static) method	0.00335
319.02 K, Crystal, Closed cell (Static) method	0.00412
321.01 K, Crystal, Closed cell (Static) method	0.00511
323.02 K, Crystal, Closed cell (Static) method	0.00635
324.99 K, Crystal, Closed cell (Static) method	0.0078
326.93 K, Metastable liquid, Closed cell (Static) method	0.01165
326.97 K, Crystal, Closed cell (Static) method	0.00965
328.93 K, Metastable liquid, Closed cell (Static) method	0.01357
328.97 K, Crystal, Closed cell (Static) method	0.01165
330.9 K, Metastable liquid, Closed cell (Static) method	0.01573
330.92 K, Crystal, Closed cell (Static) method	0.01405
332.84 K, Metastable liquid, Closed cell (Static) method	0.01823
334.84 K, Metastable liquid, Closed cell (Static) method	0.02122
336.84 K, Closed cell (Static) method, Liquid	0.02458
338.85 K, Closed cell (Static) method, Liquid	0.02803
340.8 K, Closed cell (Static) method, Liquid	0.03252
342.76 K, Closed cell (Static) method, Liquid	0.0371
344.76 K, Closed cell (Static) method, Liquid	0.04283
346.67 K, Closed cell (Static) method, Liquid	0.04856
348.71 K, Closed cell (Static) method, Liquid	0.05584
350.65 K, Closed cell (Static) method, Liquid	0.06347
352.66 K, Closed cell (Static) method, Liquid	0.07223
354.52 K, Closed cell (Static) method, Liquid	0.08123
356.6 K, Closed cell (Static) method, Liquid	0.09314
358.58 K, Closed cell (Static) method, Liquid	0.1051
360.55 K, Closed cell (Static) method, Liquid	0.1182
362.49 K, Closed cell (Static) method, Liquid	0.1338
364.51 K, Closed cell (Static) method, Liquid	0.1519
366.47 K, Closed cell (Static) method, Liquid	0.1698
368.46 K, Closed cell (Static) method, Liquid	0.1902
370.41 K, Closed cell (Static) method, Liquid	0.2138
372.39 K, Closed cell (Static) method, Liquid	0.2395
374.28 K, Closed cell (Static) method, Liquid	0.2657
376.36 K, Closed cell (Static) method, Liquid	0.298
378.24 K, Closed cell (Static) method, Liquid	0.3306
380.3 K, Closed cell (Static) method, Liquid	0.3693
382.21 K, Closed cell (Static) method, Liquid	0.4085
384.22 K, Closed cell (Static) method, Liquid	0.4558
386.18 K, Closed cell (Static) method, Liquid	0.5028
388.17 K, Closed cell (Static) method, Liquid	0.562

Conditions	Normal melting temperature [°C]
[1], Crystal	62.1

Conditions	Molar enthalpy of transition or fusion [kcal/mol]
[2]	5.11

CNc1ccc(C(=O)OC)cc1 [methyl p-(methylamino)benzoate]
[1]
Conditions	vapor or sublimation pressure
317.09 K, Crystal, Calculated from knudsen effusion weight loss	7.8e-05 kPa
319.16 K, Crystal, Calculated from knudsen effusion weight loss	0.000101 kPa and 0.000103 kPa
321.19 K, Crystal, Calculated from knudsen effusion weight loss	0.000131 kPa and 0.00013 kPa
323.08 K, Crystal, Calculated from knudsen effusion weight loss	0.000167 kPa and 0.000165 kPa and 0.000168 kPa
325.15 K, Crystal, Calculated from knudsen effusion weight loss	0.000213 kPa and 0.000207 kPa and 0.000215 kPa
327.18 K, Crystal, Calculated from knudsen effusion weight loss	0.000263 kPa and 0.000266 kPa and 0.000271 kPa
329.12 K, Crystal, Calculated from knudsen effusion weight loss	0.000338 kPa and 0.000335 kPa and 0.000341 kPa
331.22 K, Crystal, Calculated from knudsen effusion weight loss	0.000427 kPa and 0.000425 kPa and 0.000433 kPa
332.9 K, Crystal, Closed cell (Static) method	0.00054 kPa
333.17 K, Crystal, Calculated from knudsen effusion weight loss	0.000537 kPa and 0.000535 kPa and 0.00054 kPa
334.88 K, Crystal, Closed cell (Static) method	0.00068 kPa
335.09 K, Crystal, Calculated from knudsen effusion weight loss	0.00068 kPa and 0.000688 kPa and 0.000691 kPa
336.87 K, Crystal, Closed cell (Static) method	0.00086 kPa
337.17 K, Crystal, Calculated from knudsen effusion weight loss	0.000869 kPa and 0.000862 kPa and 0.000855 kPa
338.87 K, Crystal, Closed cell (Static) method	0.00108 kPa
339.18 K, Crystal, Calculated from knudsen effusion weight loss	0.001064 kPa and 0.00106 kPa and 0.001061 kPa
340.85 K, Crystal, Closed cell (Static) method	0.00134 kPa
342.84 K, Crystal, Closed cell (Static) method	0.00167 kPa
344.81 K, Crystal, Closed cell (Static) method	0.00207 kPa
346.8 K, Crystal, Closed cell (Static) method	0.00257 kPa
348.77 K, Metastable liquid, Closed cell (Static) method	0.00482 kPa
348.79 K, Crystal, Closed cell (Static) method	0.00317 kPa
350.76 K, Metastable liquid, Closed cell (Static) method	0.0056 kPa
350.81 K, Crystal, Closed cell (Static) method	0.0039 kPa
352.75 K, Metastable liquid, Closed cell (Static) method	0.00655 kPa
352.76 K, Crystal, Closed cell (Static) method	0.00477 kPa
354.74 K, Crystal, Closed cell (Static) method	0.00575 kPa
354.74 K, Metastable liquid, Closed cell (Static) method	0.0076 kPa
356.72 K, Metastable liquid, Closed cell (Static) method	0.00876 kPa
356.73 K, Crystal, Closed cell (Static) method	0.00703 kPa
358.69 K, Metastable liquid, Closed cell (Static) method	0.01017 kPa
358.71 K, Crystal, Closed cell (Static) method	0.0085 kPa
360.67 K, Metastable liquid, Closed cell (Static) method	0.01173 kPa
360.69 K, Crystal, Closed cell (Static) method	0.01033 kPa
362.67 K, Metastable liquid, Closed cell (Static) method	0.01351 kPa
364.65 K, Metastable liquid, Closed cell (Static) method	0.01561 kPa
366.64 K, Metastable liquid, Closed cell (Static) method	0.01788 kPa
368.55 K, Closed cell (Static) method, Liquid	0.02015 kPa
370.6 K, Closed cell (Static) method, Liquid	0.02331 kPa
372.58 K, Closed cell (Static) method, Liquid	0.02669 kPa
374.55 K, Closed cell (Static) method, Liquid	0.03049 kPa
376.53 K, Closed cell (Static) method, Liquid	0.03459 kPa
378.5 K, Closed cell (Static) method, Liquid	0.03935 kPa
380.51 K, Closed cell (Static) method, Liquid	0.04446 kPa
382.47 K, Closed cell (Static) method, Liquid	0.05044 kPa
384.46 K, Closed cell (Static) method, Liquid	0.05682 kPa
386.45 K, Closed cell (Static) method, Liquid	0.06435 kPa
388.41 K, Closed cell (Static) method, Liquid	0.07241 kPa
390.4 K, Closed cell (Static) method, Liquid	0.0815 kPa
392.35 K, Closed cell (Static) method, Liquid	0.09154 kPa

Conditions	Normal melting temperature [°C]
[1], Crystal	93

Conditions	Molar enthalpy of transition or fusion [kcal/mol]
[2]	6.57

From the NIST ThermoML archive (doi:10.1021/acs.jced.5b00978)
